Results reported in US11433090B2, “mTOR-inhibitor-containing medicine for treating or preventing ophthalmic symptoms, disorders, or diseases, and application thereof” (The Doshisha, priority 2017, dated 2022).

What was measured:
mTOR = mTOR expression at protein level in iFECD (western blot); format: cell-based, human; conditions: 3 pmol mTOR siRNA, FIG. 6
Method: (§1) The medium was removed from a culture dish in which iFECDs were being cultured, and the cells were supplemented with 1×PBS (−) that was preheated to 37° C., and were washed. This was repeated twice. The cells were supplemented again with 1×PBS (−) and incubated for 3 minutes at 37° C. (5% CO2). After removing the PBS (−), the cells were supplemented with 0.05% Trypsin-EDTA (Nacalai Tesque, 32778-34) and incubated for 5 minutes at 37° C. (5% CO2). The cells were then suspended in a medium, and collected by centrifugation at 1500 rpm for 3 minutes. DMEM (Nacalai Tesque, 08456-36)+10% FBS (Biowest, S1820-500)+1% P/S (Nacalai Tesque, 26252-94) was used as the medium.
iFECDs were seeded on a 12-well plate at a ratio of 3×10^4 cells per well and cultured for 24 hours at 37° C. (5% CO2) (medium: DMEM+10% FBS+1% P/S). After 24 hours, the medium was removed. Lipofectamine (invitrogen, 92008) and 3 pmol of mTOR siRNA (Ambion, AS026M0L) were added to culture the cells for 24 hours (medium: OptiMEM-I (invitrogen, 31985-088)). The mTOR siRNA that was used has a sense strand set forth in SEQ ID NO: 1 and an antisense strand set forth in SEQ ID NO: 2. […]
5 μg of the extracted protein was separated by SDS-PAGE and transferred onto a nitrocellulose membrane. […] The detected band strength was analyzed with a lumino image analyzer LAS-4000 mini (Fuji Film) and ImageQuant™ software (GE Healthcare).

fibronectin = assay: Western blot of fibronectin production induced by TGF-β2 in iFECD; format: cell-based, human; conditions: 3 pmol mTOR siRNA, then TGF-β2 10 ng/ml 24 h, FIG. 9
Method: as §1
iFECDs were seeded on a 6-well plate at a ratio of 2×10^5 cells per well and cultured for 24 hours at 37° C. (5% CO2) (DMEM+10% FBS+1% P/S was used as the medium). After 24 hours, the medium was removed. Rapamycin was added to culture the cells for 24 hours. (DMEM+2% FBS+1% P/S was used as the medium). After 24 hours, the medium was removed. A medium containing 10 ng/ml of Recombinant Human TGF-β2 (Wako, 200-19911) and rapamycin was added to culture the cells for 24 hours. […]
5 μg of the extracted protein was separated by SDS-PAGE and transferred onto a nitrocellulose membrane. […] The detected band strength was analyzed with a lumino image analyzer LAS-4000 mini (Fuji Film) and ImageQuant™ software (GE Healthcare). […]

mTOR siRNA: siRNA against mTOR gene (Ambion, AS026M0L); sense strand SEQ ID NO: 1, antisense strand SEQ ID NO: 2 (sense CAUUCGCAUUCAGUCCAUATT; antisense UAUGGACUGAAUGCGAAUGAT; chemistry not given here)
mTOR expression, protein level (western blot) (mTOR): suppression was found | production of fibronectin induced by TGF-β2, western blot (fibronectin): hardly observed
